In PMC7601681, “Human Serum Albumin Binds Native Insulin and Aggregable Insulin Fragments and Inhibits Their Aggregation” (Biomolecules, 2020):
Residues, ends and D or L forms follow the SMILES beside them. *: point of attachment. Butanoyl(4-pyren-1-yl) = O=C(CCCc1ccc2ccc3cccc4ccc1c2c34)*

Tests used:
HSA [1] = target: T1, HSA (Homo sapiens, UniProt P02768); experiment: Steady-state fluorescence titration with HSA (binding constant Kb); details: Py-LYQLENY 3 µM in buffer, fluorescence intensity as function of HSA concentration (plateau at 45 µM), Equation (3)
T1 construct: purchased Sigma-Aldrich
T1 sequence (P02768 25-609): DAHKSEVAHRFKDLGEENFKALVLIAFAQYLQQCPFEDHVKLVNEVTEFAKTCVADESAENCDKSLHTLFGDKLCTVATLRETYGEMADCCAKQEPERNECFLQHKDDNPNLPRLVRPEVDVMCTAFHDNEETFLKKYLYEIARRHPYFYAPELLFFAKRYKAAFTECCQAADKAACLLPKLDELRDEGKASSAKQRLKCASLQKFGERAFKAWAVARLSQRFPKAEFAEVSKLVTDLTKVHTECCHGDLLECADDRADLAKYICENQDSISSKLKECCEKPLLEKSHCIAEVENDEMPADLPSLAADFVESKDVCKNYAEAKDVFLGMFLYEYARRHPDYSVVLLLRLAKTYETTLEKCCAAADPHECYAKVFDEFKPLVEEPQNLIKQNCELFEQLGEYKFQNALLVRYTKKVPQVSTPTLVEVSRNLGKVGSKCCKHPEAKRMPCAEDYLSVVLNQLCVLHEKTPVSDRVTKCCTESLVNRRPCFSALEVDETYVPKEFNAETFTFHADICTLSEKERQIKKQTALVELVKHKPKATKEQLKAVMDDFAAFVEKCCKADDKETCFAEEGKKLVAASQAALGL
Procedure: The prepared samples were used within 24 h.
Steady-state absorption and fluorescence spectra were recorded at a resolution of 0.5 nm using an Aminco Bowman AB2 Series spectrofluorometer (Thermo Fisher Scientific Inc., Waltham, MA, USA). Unless otherwise indicated, in emission measurements, the excitation wavelength was 337 nm, and excitation and emission slits were set to 2.0 and 0.5 nm, respectively.
For Py-LYQLENY conjugate (2), the binding constants Kb were calculated according to Equation (3) proposed by Kuzmin et al.:θ = Kb·[HSA] / (1+ Kb·[HSA])(3) where [HSA] is the concentration of the albumin [61], θ = (I − I0)/(I∞ − I0) is the fraction of the pyrene probe bound with HSA, I0 is fluorescence intensity without HSA, I∞ is fluorescence intensity with [HSA] = 45 µM (reaching a plateau, Figure 6b) and I is the fluorescence intensity for subsequent […].
The calculated value also confirmed existence of interactions between 2 and HSA with pyrene fragment presented on less polar environment inside protein. […] The binding constants 1.5 ± 0.3 × 10^6 dm^3 mol^−1 to 6.5 ± 0.4 × 10^7 dm^3 mol^−1 were calculated for complexes of HSA with Py-hydrophobic peptide.

[2] = Solubility and aggregation of pyrene-labeled peptides seen by absorption and fluorescence; details: for solubility in ethanol and methanol: judged from narrow absorption bands
Procedure: The solutions of HSA (concentration = 3 10^−5 M) were prepared by dissolving the protein in 0.01 M of phosphate buffer saline (PBS, [NaCl] = 150 mM), pH = 7.2. […] The prepared samples were used within 24 h. […] The concentration of HSA was verified spectrophotometrically using the molar absorption coefficient 35500 M^−1cm^−1 at 280 nm for HSA [61]. In order to ensure complete protein hydration, the solutions were stored at room temperature for at least 1 h before measurements. The samples for fluorescence measurements were saturated with argon or deaerated with a vacuum pump.
The absorbances of Py-LYQLENY and Py-VEALYL were determined in 10 mM standard PBS solution, ethanol, methanol, and 10 mM TX-100. The spectra were normalized to a maximum of S0→S2 […]
band (Figure 4, panel I).
(1 picture or pasted object on this page, not shown here)
Fig. S7. Panel I: Normalized absorption spectra of Py-LYQLENY (a) and Py-VEALYL (b) in different solvents. Panel II: Normalized emission spectra of Py-LYQLENY (a) and Py-VEALYL (b) in different […]
We also investigated the solubility of Py-LYQLENY conjugate (2) in dioxane.
This allowed the molar coefficient absorbance to be determined, using the gravimetric […]
The addition of a small amount of concentrated
Py-LYQLENY stock solution in dioxane to the buffer solution enabled the molar absorbance coefficient […]
In order to investigate the possible aggregation of the fluorescence labeled insulin hot spots in the buffer solution, spectrophotometric titration was performed for Py -LYQLENY (2) in a range of concentration from 2.9 to 56.4 µM. Titration was carried out until there were no significant changes in fluorescence intensity.
The fluorescence spectra were recorded for each concentration (Figure 5a). After normalization of the […]
Fig. S8. Fluorescence spectra of Py-LYQLENY in PBS solutions recorded for the given probe

HSA [3] = target: T1, HSA; experiment: Time-resolved fluorescence decay of the pyrene label in the presence of HSA; format: binding; details: [HSA] 30 μM, bi-exponential kinetics, average lifetime by Equation (2), λexc 337 nm, λem 400 nm
Procedure: The solutions of HSA (concentration = 3 10^−5 M) were prepared by dissolving the protein in 0.01 M of phosphate buffer saline (PBS, [NaCl] = 150 mM), pH = 7.2. […] The prepared samples were used within 24 h. […] In order to ensure complete protein hydration, the solutions were stored at room temperature for at least 1 h before measurements. The samples for fluorescence measurements were saturated with argon or deaerated with a vacuum pump.
Time-resolved measurements of HSA fluorescence were performed using a flash photolysis system based on a GL-3300 nitrogen laser (Photon Technology International, Birmingham, NJ, USA) providing single light pulses with a wavelength of 337.1 nm, duration ~800 ps, and average energy 100 µJ. The detection system consisted of a Baush&Lomb monochromator (Rochester, NY, USA), Hamamatsu 1P28 photomultiplier, and a PS325 power supply system (Stanford Research, Sunnyvale, CA, USA). […] All experiments were carried out at room temperature (25 ± 1 °C) using quartz cells with an optical length of 1 cm.

[4] = Time-resolved fluorescence decay of the pyrene label in buffer or TX-100 (no protein); format: physicochemical; details: PBS, mono-exponential kinetics, λexc 337 nm, λem 400 nm; short lifetime taken as sign of aggregation
HSA [5] = target: T1, HSA; experiment: Quenching of pyrene fluorescence by acrylamide (Stern-Volmer) in buffer and HSA solution; format: binding; details: [HSA] 30 µM, Stern-Volmer plots
Procedure: Additionally, we examined the quenching of Py-LYQLENY and Py-VEALYL by acrylamide (ACR) in the buffer solution and HSA solution (Figure 5 Stern-Volmer plots).
Figure 5 Stern–Volmer plots for quenching of Py-LYQLENY and Py-VEALYL by ACR in the buffer and HSA solution. I0 is fluorescence intensity without quencher, I—fluorescence intensity at various concentrations of ACR, [HSA] = 30 µM.

Structure (SMILES)	binding constant Kb (HSA [1])	solubility in aqua media in the presence of HSA [2]	solubility in dioxane [2]	solubility in the buffer solution compared with dioxane ([2]; PBS)	solubility in ethanol and methanol [2]	τHSA, lifetime of fluorescence decay in the presence of HSA (HSA [3])	τPBS, lifetime of fluorescence decay in PBS [4]	aggregation in buffer solution ([2]; 0.01 M PBS, 150 mM NaCl, pH 7.2)	quenching by acrylamide in the presence of HSA versus buffer (slope of I0/I vs. ACR concentration) (HSA [5])
CC(C)C[C@H](NC(=O)CCCc1ccc2ccc3cccc4ccc1c2c34)C(=O)N[C@@H](Cc1ccc(O)cc1)C(=O)N[C@@H](CCC(N)=O)C(=O)N[C@@H](CC(C)C)C(=O)N[C@@H](CCC(=O)O)C(=O)N[C@@H](CC(N)=O)C(=O)N[C@@H](Cc1ccc(O)cc1)C(=O)O [Py-LYQLENY, Py-LYQLENY-OH] ({Butanoyl(4-pyren-1-yl)}-LYQLENY-OH)	2 × 10^5 dm^3 mol^−1	increased significantly	dissolved relatively well	lower	good	–	–	–	–
CC(C)C[C@H](NC(=O)[C@H](Cc1ccc(O)cc1)NC(=O)[C@H](CC(C)C)NC(=O)[C@H](C)NC(=O)[C@H](CCC(=O)O)NC(=O)[C@@H](NC(=O)CCCc1ccc2ccc3cccc4ccc1c2c34)C(C)C)C(=O)O [Py-VEALYL, Py-VEALYL-OH] ({Butanoyl(4-pyren-1-yl)}-VEALYL-OH)	–	increased significantly	–	–	good	153.9 ns	43.9 ns	partial aggregation	protected against interaction with the quencher
